Peptide text beside a SMILES is read from it. * marks the point of attachment. Cbz = O=C(OCc1ccccc1)*; CH2F = FC*
Tests used:
[1] = system: calpain; assay: Immunoblotting for calpain activation in infected melanoma cells; assay type: cell-based, human; conditions: delta-PK infected cultures; PD150606 100 μM; z-VAD-fmk 100 μM (Sigma-Aldrich) or 20 μM (Promega)
Description: (§1) FIG. 6. Calpain and caspase-7 and caspace-3 are activated in delta-PK infected melanoma cells. […] Data were quantified by densitometry and expressed as the ratio of the p76/p80 and p28 densitometric units +/−SD, respectively. Representatives of three replicate experiments are shown (***p<0.001 vs. Mock). B. The immunoblots in FIG. 6A were sequentially stripped and re-probed with antibodies to activated caspase-7, activated caspase-3, and actin. Data were quantified by densitometry and results are expressed as densitometric units +/−SD (**p<0.01, ***p<0.001 vs. Mock). C. […]
(§2) Cultured cells were lysed with radioimmunoprecipitation buffer [RIPA; 20 mM Tris-HCl (pH 7.4), […], 1% Nonidet P-40, 0.1% sodium dodecyl sulfate (SDS), 0.5% sodium deoxycholate] supplemented with protease and phosphatase inhibitor cocktails (Sigma-Aldrich), and sonicated twice for 30 seconds at 25% output power with a sonicator ultrasonic processor (Misonix, Inc., Farmingdale, N.Y.). […] Protein concentration was determined by the bicinchoninic assay (Pierce, Rockford, Ill.), and 100 μg protein samples were resolved by SDS-polyacrylamide gel elecrophoresis (SDS-PAGE) and transferred to polyvinylidene fluoride membranes followed by immunoblotting. […] Quantitation was by densitometric scanning with the Bio-Rad GS-700 imaging densitometer (Bio-Rad, Hercules, Calif.). […]

[2] = target: T1, caspase-7 (Homo sapiens, UniProt P55210); assay: Immunoblotting for caspase-7 activation in infected melanoma cells; assay type: cell-based; conditions: delta-PK infected cultures, 24 hrs p.i.; PD150606 100 μM; z-VAD-fmk 100 μM (Sigma-Aldrich) or 20 μM (Promega)
T1 construct: endogenous in cells; host or cells: A2058 human melanoma cells infected with delta-PK
T1 sequence (P55210 24-198 limits assumed): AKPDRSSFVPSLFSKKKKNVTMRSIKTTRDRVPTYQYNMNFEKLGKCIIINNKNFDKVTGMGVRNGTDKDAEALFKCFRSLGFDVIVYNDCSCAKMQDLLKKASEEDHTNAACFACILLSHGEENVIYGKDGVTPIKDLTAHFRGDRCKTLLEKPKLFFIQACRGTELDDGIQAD
T1 sequence (P55210 207-303 limits assumed): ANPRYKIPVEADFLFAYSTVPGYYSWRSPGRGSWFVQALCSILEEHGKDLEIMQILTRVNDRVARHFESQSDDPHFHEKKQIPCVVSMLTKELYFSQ
Description: as §1, §2

Row | SMILES | effect of inhibitor on delta-PK induced calpain activation (p76/p80 ratio, p28) [1] | effect of inhibitor on delta-PK induced caspase-7 activation / cleavage products [2]
1 | O=C(O)/C(S)=C/c1ccc(I)cc1 [PD150606] | inhibited | increased
2 | COC(=O)C[C@H](NC(=O)[C@H](C)NC(=O)[C@@H](NC(=O)OCc1ccccc1)C(C)C)C(=O)CF [z-VAD-fmk, benzyloxcarbonyl-Val-Ala-Asp-fluormethyl ketone] (Cbz-Val-Ala-Asp(OMe)-CH2F) | did not affect calpain activation | inhibited

From US8414885B2, “Methods and compositions for treating cancer” (priority 2009, dated 2013)
